Experimental data published in US20090011974A1, “Scavenger Receptor B1 (Cla-1) Targeting for the Treatment of Infection, Sepsis and Inflammation” (priority 2002, published 2009).
Where two headings read alike, the source gives them in different places. Each block holds one molecule with its values, some of them ahead of it. Where no end group is shown, it is not given here. [ ]: non-standard residue; d: D form.

Tests used:
[1] = system: SR-BI/CLA-1; type: cell-based, mouse; settings: 24 h; for activity as modulator of SR-BI, ABCA1 and IL-1β gene expression compared with other LPS preparations / relative activities for the suppressive effect on SR-BI/CLA-1 and ABCA1 expression and SR-BI/CLA-1 protein expression: 10 ng/ml, RAW cells
Procedure: (§1) Cell culture and treatment.
(§2) RNA isolation and cDNA preparation. The total RNA of cultured cells is isolated and purified using Trizol reagent (Gibco BRL, Grand Island, N.Y.) according to the manufacturer's protocol. The concentration and quality of RNA were determined by UV absorbance at 260 and 280 nm. To prepare cDNA, total RNA (3 μg) is added to a mixture containing the following: 6 μl of 5× first-strand buffer (75 mM KCl, 50 mM Tris-HCl [pH 8.3], 3 mM MgCl2), 1.5 μl of deoxynucleoside triphosphates (10 mM [each] dATP, dCTP, dTTP, and dGTP), 1.5 μl of 0.0156 U (0.4 μg) of random hexamers, and 0.2 U of Moloney murine leukemia virus reverse transcriptase (all from Gibco BRL, Gaithersburg, Md.); 0.004 U of RNasin (Promega, Madison, Wis.); and RNase-free water to a final volume of 30 μl per 3 μg of cDNA. Samples are incubated at 37° C. for 60 min. Preliminary experiments are undertaken to achieve optimal conditions for amplifying mRNA for each of the gene products.
Reverse transcription-PCR (RT-PCR). A mixture of 37.2 μl of RNase-free water, 5 μl of 10× reaction buffer, and 0.5 μl (5 U) of AmpliTaq Gold DNA polymerase (Applied Biosystems, Roche Molecular Systems, Inc., Branchburg, N.J.), sense and antisense primers (1 μl each), and 0.3 μl (3 μCi) of [α-^32P]dCTP (Amersham Pharmacia Biotech, San Diego, Calif.) is vortexed, and 46 μl is aliquoted into each tube, containing 4 μl of cDNA, and overlaid with 50 μl of mineral oil (Sigma Chemical Co.). cDNA is amplified in a Perkin-Elmer (Norwalk, Conn.) System 2400 DNA thermal cycler, with denaturation for 1 min at 94° C., annealing for 1 min at 50° C., and extension for 2 min at 72° C. for GADPH (glyceraldehyde-3-phosphate dehydrogenase) (19 cycles), ABCA1 (28 cycles), SR-BI/CLA-1, and interleukin-1 [3 (IL-1β (27 cycles). The primers used in these analyses are as follows: GADPH, (SEQ ID NO:1) 5′-[…]-3′ and (SEQ ID NO:2) 5′-[…]-3′; SR-BI/CLA-1, (SEQ ID NO:3) 5′-CCA […] GGC TTC TGC-3′ and (SEQ ID NO:4) 5′-CTG AAT GGC CTC CTT ATC C-3′; ABCA1, (SEQ ID NO:5) 5′-CAACTACAAAGCCCTCTTTG-3′ and (SEQ ID NO:6) 5′-CTTGGCTGTTCTCCATGAAG-3′; and IL-1β, (SEQ ID NO:7) 5′-CTG AAA GCT CTC CAC CTC-3′ and (SEQ ID NO:8) 5′-GTG CTG ATG TAC CAG TTG-3′.
(§3) For the densitometry analysis, the intensities of the bands are measured with the Gel-Pro Analyzer 3.0 computer program and normalized with GADPH intensity.

[2] = system: ABCA1; experiment: RT-PCR of ABCA1 mRNA in RAW cells exposed to LPS preparations; type: cell-based, mouse; settings: inhibitor 20 mM added 2 h before LPS 10 ng/ml, 24 h
Procedure: as §1, §2
(§4) Reverse transcription-PCR (RT-PCR). […]
as §3

[3] = system: IL-1β; experiment: RT-PCR of IL-1β mRNA in RAW cells exposed to LPS preparations; type: cell-based, mouse; settings: 24 h
Procedure: as §1, §2, §4, §3

[4] = system: THP-1 cells; experiment: LPS-stimulated cytokine production in THP-1 cells (ELISA); type: cell-based, human; settings: 10 ng/ml LPS, 24 h
Procedure: (§5) THP-1 and CLA-1 overexpressing HeLa cells. Human monocyte-macrophages, THP-1 (ATCC [American Type Culture Collection] TIB 71), are grown in 48-well plates in RPMI 1640 medium supplemented with 10% fetal calf serum (FCS), penicillin (100 U/ml), and streptomycin (100 μg/ml). All experiments involving LPS-induced interleukin production utilize the same media except that 1% FCS was used. Hela cells were cultured as previously reported (Vishnyakova, T. G. et al. (2003) “BINDING AND INTERNALIZATION OF LIPOPOLY[…] CLA-1, A HUMAN ORTHOLOGUE OF RODENT […] RECEPTOR B1,” J. Biol. Chem 278:22771-22780).
Assays for cytokines and lactate dehydrogenase (LD). […]

[5] = system: THP-1 cells; experiment: LTA, Gro-EL and HSP60 stimulated IL-8/IL-6 production in THP-1 cells; type: cell-based, human; settings: 1 μg/ml LTA or Gro-EL, 10-200 fold excess of peptide
Procedure: as §5
(§6) Assays for cytokines and lactate dehydrogenase (LD).

[6] = system: THP-1 cells; experiment: TNFα-induced IL-6 and IL-8 secretion in THP-1 cells; type: cell-based, human
Source text: as §6

[7] = molecular target: T1, CLA-1 (Homo sapiens, UniProt Q8WTV0); type: binding; settings: for competition of unlabelled ligands against 125I-LPS (0111:B4): 100× excess unlabeled ligand, CLA-1 overexpressing and mock-transfected cells
T1 construct: using the expression plasmid pTRE2 (Clontech, Pal Alto, Calif.), encoding a CLA-1 protein (pTRE2-CLA-1); expressed in transfected cells; host or cells: HeLa (Tet-off) cells (Clontech), stably co-transfected with pTRE2-CLA-1 and pTK-Hyg and selected with hygromycin
T1 sequence (Q8WTV0 1-509 isoform Q8WTV0-2): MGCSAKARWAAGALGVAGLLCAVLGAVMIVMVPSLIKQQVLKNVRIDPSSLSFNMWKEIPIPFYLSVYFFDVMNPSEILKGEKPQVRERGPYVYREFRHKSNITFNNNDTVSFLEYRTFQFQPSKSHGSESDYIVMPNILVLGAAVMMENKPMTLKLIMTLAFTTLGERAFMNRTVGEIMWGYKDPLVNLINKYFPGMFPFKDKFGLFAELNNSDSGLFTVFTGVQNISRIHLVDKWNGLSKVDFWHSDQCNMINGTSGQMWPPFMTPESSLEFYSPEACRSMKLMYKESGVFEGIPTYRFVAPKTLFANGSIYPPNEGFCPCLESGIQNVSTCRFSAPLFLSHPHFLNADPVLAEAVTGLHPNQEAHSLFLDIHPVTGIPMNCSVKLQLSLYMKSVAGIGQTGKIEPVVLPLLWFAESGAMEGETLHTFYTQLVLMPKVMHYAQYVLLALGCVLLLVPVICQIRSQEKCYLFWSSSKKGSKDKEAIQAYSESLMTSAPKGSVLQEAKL
Procedure: The lipopolysaccharide 0111:B4 (Sigma) is iodinated as reported by Ulevitch, R J. (1978) (“THE PREPARATION AND CHARACTERIZATION OF A RADIO IODINATED BACTERIAL LIPOPOLYSACCHARIDE,” Immunochemistry 15:157-164). […] After a 2-hr-incubation on ice, the cells are rinsed with ice-cold HBSS and utilized for radioactivity measurements as reported by Bocharov, A. V. et al. (2001) (“CHARACTERIZATION OF A 95 KDA HIGH AFFINITY HUMAN HIGH DENSITY LIPOPROTEIN-BINDING PROTEIN,” Biochemistry 40:4407-4416). Specific binding is determined as the difference between total and non-specific binding, and normalized by protein content.
HeLa cells grown until 70% confluence in DMEM with 10% FCS are washed with PBS and cultured for 24 hr in serum-free DMEM. […] After washing with ice-cold PBS, the cells are hydrolyzed in 1 N NaOH. Radioactivity is counted in an LKB Wallac Ultragamma counter.

[8] = Limulus amebocyte lysate (LAL) assay for LPS incubated with peptides; settings: RPMI-1640 1% FCS or DPBS; 10 ng/ml LPS, 10 μg/ml peptide, 37° C., 24 h
Source text: Limulus Amebocyte Lysate (LAL) Assay for LPS.
Limulus amebocyte lysate (LAL) assay for LPS.

[9] = system: SR-BI/CLA-1; experiment: Competition for 125I-HDL binding sites in RAW cells; design: species or system mouse; settings: 50 μg/ml LPS analogs
Procedure: Competition Binding Experiments. RAW cells are cultured for 24 hr in serum free DMEM before experiment. […] Cell radioactivity is measured as described in the “LPS-binding assay” section.

[10] = molecular target: T1, CLA-1; experiment: 125I-HDL binding and HDL-CE uptake in CLA-1 stably transfected HeLa cells
Procedure: CLA-1 Overexpression HeLa cells. HeLa (Tet-off) cells (Clontech, Pal Alto, Calif.) are grown in DMEM (Invitrogen), supplemented with 10% fetal calf serum, 2 mM glutamine, 100 IU/ml of penicillin, 100 μg/ml of streptomycin, and 100 μg/ml of G418. Cells were transfected with FuGENE-6 (Roche Diagnostics), using the expression plasmid pTRE2 (Clontech, Pal Alto, Calif.), encoding a CLA-1 protein (pTRE2-CLA-1). Cells were co-transfected with pTRE2-CLA-1 and pTK-Hyg (Clontech, Pal Alto, Calif.), using a 1:20 ratio, and selected with 400 μg/ml of hygromycin. Hygromycin resistant cells were screened for the expression of the CLA-1 protein by utilizing rabbit anti-SR-BI/CLA-1 (Novus Biological, Inc) by Western blotting.
HDL-Binding And Cholesteryl Oleoyl Uptake Assays. Saturation binding experiments are performed at 4° C. using ^125I-HDL concentrations between 1.25 and 40 μg/ml. […] After a 2 hr-incubation on ice, specific binding is determined as reported by Bocharov, A. V. et al. (2001) (“CHARACTERIZATION OF A 95 KDA HIGH AFFINITY HUMAN HIGH DENSITY LIPOPROTEIN-BINDING PROTEIN,” Biochemistry 40:4407-4416).
HDL-[^3H]CE uptake experiments are performed in a serum free DMEM containing 0.2% BSA. […] Specific uptake is determined as the difference between total and nonspecific uptake.

[11] = molecular target: T2, CLA-1 (CD36 and LIMPII Analogous-1), human scavenger receptor class B type I (human, UniProt Q8WTV0 1-552); experiment: confocal microscopy of Alexa 568-labelled peptide uptake, CLA-1 HeLa against mock HeLa
T2 construct: whole, on cells; Target is CLA-1 on stably transfected HeLa cells, compared with mock-transfected HeLa cells, which carry a low endogenous level of CLA-1; also called SR-BI/CLA-1; human SR-BI
T2 sequence (looked up): T1 sequence (Q8WTV0 1-509 isoform Q8WTV0-2)

[12] = inhibitor 20 mM added 2 h before LPS 10 ng/ml

Molecule: Cc1ccc(S(=O)(=O)N[C@@H](Cc2ccccc2)C(=O)CCl)cc1 [TPCK, tosylphenyl chloromethyl ketone]
- effect on LPS-induced SR-BI/CLA-1 mRNA level decrease [1, 12]: effectively prevented
- effect on LPS-induced ABCA1 mRNA level decrease [2]: effectively prevented
- effect on LPS-induced increase of IL-1β mRNA [3, 12]: effectively prevented

Molecule: DWLKAFYDKVAEKLKEAF-P-DWLKAFYDKVAEKLKEAF [D-37PA] ([dD][dW][dL][dK][dA][dF][dY][dD][dK][dV][dA][dE][dK][dL][dK][dE][dA][dF][dP][dD][dW][dL][dK][dA][dF][dY][dD][dK][dV][dA][dE][dK][dL][dK][dE][dA][dF]) [Peptide D-37PA]
- effect on LPS-stimulated cytokine (IL-8, IL-6, TNF-α) production [4]: similarly effective in a blocking
- effect on LTA and Gro-EL stimulated IL-8 and IL-6 production [5]: similarly effective in blocking
- effect on TNFα-induced IL-6 and IL-8 production [6]: neither peptides was effective in blocking
- competition against 125I-LPS ([7]; 1 μg/ml 125I-LPS, mock transfected and CLA-1 overexpressing HeLa cells): competed in a dose-dependent manner
- effect on LAL activity of LPS in media containing bivalent cations [8]: neither L-37PA nor D-37PA affected LPS's endotoxin activity

Molecule: diphosphoryllipid A [DPLA]
- activity as modulator of SR-BI, ABCA1 and IL-1β gene expression compared with other LPS preparations [1]: the same activity as the complete form of LPS from E. coli
- relative activities for the suppressive effect on SR-BI/CLA-1 and ABCA1 expression and SR-BI/CLA-1 protein expression [1]: LPS (Re595)>LPS (0111:B4)>DPLA>MPLA
- decrease of 125I-HDL-binding by forms of LPS [9]: similarly decreased
- competition of unlabelled ligands against 125I-LPS (0111:B4) [7]: compete against iodinated LPS in both cell lines

Molecule: lipid A
- competition for 125I-HDL-binding to CLA-1 overexpressing human HeLa cells [10]: all competed

Molecule: monophosphoryllipid A [MPLA]
- activity as modulator of SR-BI, ABCA1 and IL-1β gene expression compared with other LPS preparations [1]: decreased activity compared to the other LPS derivatives
- relative activities for the suppressive effect on SR-BI/CLA-1 and ABCA1 expression and SR-BI/CLA-1 protein expression [1]: LPS (Re595)>LPS (0111:B4)>DPLA>MPLA
- activity as modulator of SR-BI, ABCA1 and IL-1β gene expression compared with other LPS preparations ([1]; listed as Re595 MPLA): less potent modulator
- competition of unlabelled ligands against 125I-LPS (0111:B4) [7]: compete against iodinated LPS in both cell lines
- potency for IL-1β gene induction relative to Re595 LPS or DPLA ([3]; 10 ng/ml, RAW cells): approximately one-half

- binding result [11]: no binding
B1: 18A (peptide)
peptide: DWLKAFYDKVAEKLKEAF
notes: Synthetic single class A amphipathic helix; also called 18PA; L18PA
